Values quoted from earlier work as cited in patent US12611397B1, “Pharmaceutical composition of darolutamide” (ORION CORPORATION, priority 2019, dated 2026).

- Solubility in water: poorly soluble in water
SMILES: CC(O)c1cc(C(=O)N[C@@H](C)Cn2ccc(-c3ccc(C#N)c(Cl)c3)n2)[nH]n1 (stereo partly drawn) [Darolutamide, N—((S)-1-(3-(3-chloro-4-cyanophenyl)-1H-pyrazol-1-yl)-propan-2-yl)-5-(1-hydroxyethyl)-1H-pyrazole-3-carboxamide]
